The record followed here is patent EP0481701B1, “Treatment composition” (priority 1990, dated 1992).

One series relates to Strep. sanguis (CR2b). In words: bacterial regrowth assay (antibacterial efficacy of Triclosan delivered in targeted liposomes). The class given is cell-based. The procedure: Liposomes were prepared by the reverse phase evaporation procedure referred to above incorporating Triclosan in the lipid mixture. Some of the liposome samples were prepared with concanavalin A (ConA) conjugated to their surface. Details are as follows: (a) Derivatisation of ConA with SATA 2.5µl of a stock solution containing 9.08mg N-succinimidyl-S-acetyl thioacetate (SATA) in 50µl dimethylformamide was added to ConA solution (10mg in 2.5ml phosphate (50mM) - EDTA (1mM) buffer, pH7.5) at room temperature. After reaction (15min) the derivatised protein (s-ConA) was separated from unreacted SATA by gel filtration on a Sephadex G-50 column (15 x 2cm). The s-ConA was activated by deacetylation using, for each 2ml of protein solution, 200µl of 0.1M hydroxylamine solution, made up in 2.5mM EDTA with sufficient solid Na₂HPO₄ added to bring the pH to 7.5. (b) Preparatlon of DPPE-MBS 40mg L-α-dipalmitoylphosphatidylethanolamine (DPPE) was dissolved in a mixture of 16ml dry chloroform, 2ml dry methanol and 20mg dry triethylamine. 20mg maleimidobenzoyl-N-hydroxysuccinimide ester (MBS) was added and the reaction mixture was stirred under nitrogen at room temperature for 24h, after which the organic phase was washed three times with phosphate buffered saline (PBS, pH7.3) to remove unreacted MBS. The DPPE-MBS derivative was recovered from the organic phase by rotary evaporation and was stored in a chloroform/methanol mixture (9:1 v/v) at 4°C. (c) Preparation of liposomes 27mg dipalmitoylphosphatidylcholine (DPPC), 3mg phosphatidylinositol (PI, from wheat germ) and 3mg DPPE-MBS were dissolved in 9ml chloroform/methanol mixture (4:1 v/v). […] The fractions collected were analysed for phospholipid and Triclosan by scintillation counting. Particle sizes of the liposomes were determined by photon correlation spectroscopy, following the method described in Hutchinson et al., Biochim. […] (e) Assessment of efficacy The antibacterial efficacy of Triclosan delivered in targeted liposomes was assessed using a bacterial regrowth assay. […]

Series [1] is described as follows: solubility of Triclosan in PBS (remark in the method). The class given is physicochemical. Particulars: PBS without ethanol. On the procedure:
Liposomes were prepared by the reverse phase evaporation procedure referred to above incorporating Triclosan in the lipid mixture. Some of the liposome samples were prepared with concanavalin A (ConA) conjugated to their surface. Details are as follows: (a) Derivatisation of ConA with SATA 2.5µl of a stock solution containing 9.08mg N-succinimidyl-S-acetyl thioacetate (SATA) in 50µl dimethylformamide was added to ConA solution (10mg in 2.5ml phosphate (50mM) - EDTA (1mM) buffer, pH7.5) at room temperature. After reaction (15min) the derivatised protein (s-ConA) was separated from unreacted SATA by gel filtration on a Sephadex G-50 column (15 x 2cm). The s-ConA was activated by deacetylation using, for each 2ml of protein solution, 200µl of 0.1M hydroxylamine solution, made up in 2.5mM EDTA with sufficient solid Na₂HPO₄ added to bring the pH to 7.5. […] The fractions collected were analysed for phospholipid and Triclosan by scintillation counting. Particle sizes of the liposomes were determined by photon correlation spectroscopy, following the method described in Hutchinson et al., Biochim. […] (e) Assessment of efficacy The antibacterial efficacy of Triclosan delivered in targeted liposomes was assessed using a bacterial regrowth assay. […]

Broadly, the % inhibition of growth is the share of the control response that was lost under treatment. Higher therefore signals a strong effect. As for `Oc1cc(Cl)ccc1Oc1ccc(Cl)cc1Cl` [Triclosan in solution, 2,4,4'-trichloro-2'-hydroxy diphenyl ether], the “% inhibition of growth incubated with saliva” value in the series on Strep. sanguis (CR2b) (1min exposure, PBS plus human saliva (1:1), 5µg Triclosan in 100µl PBS with 10% ethanol) was 3%. Besides, the “% inhibition of growth without saliva” value in the series with Strep. sanguis (CR2b) (1min exposure, PBS, no saliva, 5µg Triclosan in 100µl PBS with 10% ethanol) is given as 8%. Also, the “% inhibition of growth” value in the series on Strep. sanguis (CR2b) (relative to PBS alone, 2h exposure at 37°C, regrowth 18h, optical density at 630nm, PBS containing 10% ethanol, total Triclosan 10µg (free, liposomes with ConA) or 20µg (liposomes without ConA) in 100µl) turned out to be 75%. Besides, the “solubility in PBS alone” value in series [1] is recorded as “virtually insoluble”.
